One test has as its target T1, Hd 1NES1NiR (Hyphomicrobium denitrificans, UniProt N0B9M5).
T1 construct: gene HYPDE_25578; N-terminal cupredoxin-tethered three-domain CuNiR; predicted signal peptide removed; 6xHis-tag cut with TEV; E. coli BL21(DE3), pET-26b(+); Cu-loaded; hexamer (dimer of trimers)
T1 sequence (N0B9M5 38-486): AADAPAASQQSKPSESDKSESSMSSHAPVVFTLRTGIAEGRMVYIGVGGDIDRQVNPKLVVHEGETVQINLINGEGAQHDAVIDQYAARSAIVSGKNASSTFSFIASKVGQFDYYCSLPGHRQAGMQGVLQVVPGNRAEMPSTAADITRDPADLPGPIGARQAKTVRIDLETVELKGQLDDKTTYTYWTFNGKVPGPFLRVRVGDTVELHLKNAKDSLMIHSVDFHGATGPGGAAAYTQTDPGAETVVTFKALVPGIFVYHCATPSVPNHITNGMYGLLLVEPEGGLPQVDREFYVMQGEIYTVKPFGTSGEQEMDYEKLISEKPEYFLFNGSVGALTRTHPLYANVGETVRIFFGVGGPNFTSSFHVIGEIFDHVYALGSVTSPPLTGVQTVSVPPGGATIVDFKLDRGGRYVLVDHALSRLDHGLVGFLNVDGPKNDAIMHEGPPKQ
Kind of test: X-ray crystal structure (nitrite-soaked crystal). The test is classed as binding. The following applies: 100 mM NaNO2 soak, pH 5.3; catalytic T2Cu site, side-on, two of three monomers; third monomer holds NO.

The target in test [1] is N-terminal cupredoxin-tethered three-domain copper-containing nitrite reductase from Hyphomicrobium denitrificans strain 1NES1 (Hyphomicrobium denitrificans strain 1NES1). The test is described as follows: SEC; HiLoad 16/600 Superdex 200 pg, 100 mM Tris-HCl pH 8.0, 500 mM NaCl, 10% (v/v) glycerol, 1.0 ml/min; mass estimated from a calibration curve of marker proteins.

Broadly, the stoichiometry N is a count of units in the complex or per binding partner.

Turning to `O=NO` [NO2, nitrite], the “X-ray crystal structure (nitrite-soaked crystal)” value at Hd 1NES1NiR is recorded as “The NO2 ^− is bound to the T2Cu in a side-on conformation”.

Turning to “N-terminal cupredoxin-tethered three-domain copper-containing nitrite reductase from Hyphomicrobium denitrificans strain 1NES1 (enzyme)”, in test [1], the stoichiometry N was 6.

Values taken from publication PMC7201279, “Structures of substrate- and product-bound forms of a multi-domain copper nitrite reductase shed light on the role of domain tethering in protein complexes” (IUCrJ, 2020).
